From patent US4228298A, “15-Deoxy-16-hydroxy-16-fluoromethyl, difluoromethyl or trifluoromethyl prostaglandins of the E and F series” (American Cyanamid Company, priority 1979, dated 1980)

How the values were obtained:
Assay type in all cases: in vivo
[1] = tested on: bronchospasms elicited by serotonin; assay: Konzett procedure, bronchodilator activity against bronchospasms elicited by intravenous serotonin; details: Cavia porcellus; spasmogen serotonin; three logarithmic cumulative intravenous doses; guinea-pigs; read-out: ED 50 (spasmogen Serotonin)
Procedure: (§1) The bronchodilator activity for representative compounds of this invention was determined in Guinea-Pigs against bronchospasms elicited by intravenous injections of serotonin, histamine, and acetylcholine, by the Konzett procedure the details of which are those discussed by J. Lulling, P. Lievens, F. El Sayed and J. Prignot, Arzeimittel-Forschung 18, 995 (1968).
(§2) In the table which follows, bronchodilator activity for representative compounds of the invention against spasmogenic agents serotonin, histamine, and acetylcholine is expressed as an ED50 determined from the results obtained with three logarithmic cumulative intravenous doses.

[2] = tested on: bronchospasms elicited by histamine; assay: Konzett procedure, bronchodilator activity against bronchospasms elicited by intravenous histamine; details: Cavia porcellus; spasmogen histamine; three logarithmic cumulative intravenous doses; guinea-pigs; read-out: ED 50 (spasmogen Histamine)
Procedure: as §1, §2

[3] = tested on: bronchospasms elicited by acetylcholine; assay: Konzett procedure, bronchodilator activity against bronchospasms elicited by intravenous acetylcholine; details: Cavia porcellus; spasmogen acetylcholine; three logarithmic cumulative intravenous doses; guinea-pigs; read-out: ED 50 (spasmogen Acetylcholine)
Procedure: as §1, §2

| SMILES | ED50 [1] [µg/kg] | ED50 [2] [µg/kg] | ED50 [3] [µg/kg] |
| --- | --- | --- | --- |
| CCCCC(O)(C/C=C/[C@H]1[C@H](O)CC(=O)[C@@H]1C/C=C\CCCC(=O)O)C(F)(F)F (relative stereo) [dl-11α,16-dihydroxy-9-oxo-16-trifluoromethyl-5-cis-13-trans prostadienoic acid] | 7.96 | 4.15 | 10 |
| CCCCC(O)(CF)C/C=C/[C@H]1[C@H](O)CC(=O)[C@@H]1C/C=C\CCCC(=O)O (relative stereo) [dl-11α,16-dihydroxy-9-oxo-16-fluoromethyl-5-cis-13-trans prostadienoic acid] | 1.38 | 2.57 | 1.94 |
| CCCCC(O)(C/C=C/[C@H]1[C@H](O)CC(=O)[C@@H]1C/C=C\CCCC(=O)O)C(F)F (relative stereo) [dl-11α,16-dihydroxy-9-oxo-16-difluoromethyl-5-cis-13-trans prostadienoic acid] | 4.6 | 2.78 | 4.04 |
